Assay results from patent US20090048229A1, “Methods for promoting wakefulness” (priority 2007, published 2009).
Read-outs that look alike come from different tables or passages of the source.

Key:
butylryl cholinesterase = butylryl cholinesterase (Homo sapiens, UniProt P06276); test: Inhibition of butyrylcholinesterase; type: biochemical; settings: read-out: Inhibition of BuChE (%) 10 μM
Method: The inhibition of butylryl cholinesterase was determined using methods known in the art e.g., Alcala Molel M. et al. (2003) Characterization of the anticholinesterase activity of two new tacrin-huperzine A hybrids. Neuropharmacology, 44 (6), 749-755.

AChE = AChE (Homo sapiens, UniProt P22303); type: biochemical
male Wistar rats = test: Wake promotion (EEG/EMG sleep-wake, locomotor activity, body temperature); type: in vivo, rat; settings: for duration of wakefulness: administered 5 hours after lights on (CT-5), FIG. 2
Method: Test compounds in various dose ranges or vehicle were administered to male Wistar rats 5 hours after lights on (CT-5). EEG, EMG, locomotor activity, drink- and food-related activity, and body temperature were concurrently monitored for 30 hr before and after treatment from rats living in separate isolated recording chambers. Sleep-wake discriminations were carried out using SCORE2004™, proprietary real-time hardware and software technology of Hypnion, Inc. (Lexington, Mass.). Comparisons were made between the reference compounds: d-amphetamine, rivastigmine, modafinil, and the following carbamoyl ester test compounds: […]

[1] = target: T1, human recombinant acetylcholinesterase (Homo sapiens, UniProt P22303); test: biochemical; settings: for inhibition at 10 µM: read-out: Inhibition of AChE (%) 10 μM
T1 construct: purchased Sigma Chemical Co (St. Louis, Mo.) C1682
Method: All reagents employed in this experiment were of analytical grade. Acetylthiocholine iodide and 5,5′-dithiobis-(2-nitro)benzoic acid (DTNB) and human recombinant acetylcholinesterase (C1682) were purchased from Sigma Chemical Co (St. Louis, Mo.).
The enzyme, compound or stigmine and buffer were preincubated for 30 minutes. At the end of the preincubation period, the substrate acetylthiocholine was added. The final assay mixture contained 10 mM Tris-buffer (pH 8), 0.3 mM Acetylthiocholine and 0.33 mM DTNB and 0.08 U/ml enzyme. At least five (5) different concentrations of the compound or stigmine were assayed per IC50 experiment.
Hydrolysis of acetylthiocholine was monitored indirectly by measurement of the formation of the conjugate between thiocholine and DTNB.

BuChE = BuChE (Homo sapiens, UniProt P06276); test: In vitro screening assay, BuChE inhibition; type: biochemical
Source text: An in vitro screening assay with various conjugates was completed according to the methods described in Ellman G L et al., Biochem Pharmacol., 7:88-95 (1961) and in Nadarajah B, J. Anal. Toxicol., 16:192-193 (1992), both of which are herein incorporated by reference in their entireties. The assay method was completed according to the following: […]

[2] = tested on: male CD IGS (Sprague Dawley derived) rats; test: Induction of hypothermia after subcutaneous administration; type: in vivo, rat; settings: for Induction of hypothermia MED (mg/kg s.c.): hypothermia = fall in temperature of >0.5° C.; for fall in body temperature: subcutaneous administration; for Induction of hypothermia MED (mg/kg s.c.) / Hypothermia MED / Hypothermia MED (mg/kg): s.c.; for Hypothermia MED / Hypothermia MED (mg/kg): rats
Source text: Cholinergic agonists cause hypothermia through a central mechanism of action (Freedman et al, 1989. Direct measurement of muscarinic agents in the central nervous system of mice using ex vivo binding. Eur. J. Pharmacol. 174:253-260). […] Since a premise of the present invention is that carbomyl esters would liberate the conjugated amine in the CNS only after inhibition of acetylcholinesterase, induction of hypothermia provides a useful correlation with the acetylcholinesterase inhibition detected in vitro and in vivo.
Hypothermia was defined as a fall in temperature of >0.5° C.
Hypothermia is a marker of CNS penetration for ACHE inhibitors.
(§1) If less soluble, the maximum injection volume was 5 mL/kg.
(§2) Baseline temperatures were taken just before injection.

[3] = Dose range for cholinergic effects / max tolerated dose; type: in vivo, rat; settings: s.c., rats
Method: as §1, §2

[4] = 30 min preincubation, 25° C., read-out: Inhibition of AChE IC50

AChE, sequence (P22303 32-614): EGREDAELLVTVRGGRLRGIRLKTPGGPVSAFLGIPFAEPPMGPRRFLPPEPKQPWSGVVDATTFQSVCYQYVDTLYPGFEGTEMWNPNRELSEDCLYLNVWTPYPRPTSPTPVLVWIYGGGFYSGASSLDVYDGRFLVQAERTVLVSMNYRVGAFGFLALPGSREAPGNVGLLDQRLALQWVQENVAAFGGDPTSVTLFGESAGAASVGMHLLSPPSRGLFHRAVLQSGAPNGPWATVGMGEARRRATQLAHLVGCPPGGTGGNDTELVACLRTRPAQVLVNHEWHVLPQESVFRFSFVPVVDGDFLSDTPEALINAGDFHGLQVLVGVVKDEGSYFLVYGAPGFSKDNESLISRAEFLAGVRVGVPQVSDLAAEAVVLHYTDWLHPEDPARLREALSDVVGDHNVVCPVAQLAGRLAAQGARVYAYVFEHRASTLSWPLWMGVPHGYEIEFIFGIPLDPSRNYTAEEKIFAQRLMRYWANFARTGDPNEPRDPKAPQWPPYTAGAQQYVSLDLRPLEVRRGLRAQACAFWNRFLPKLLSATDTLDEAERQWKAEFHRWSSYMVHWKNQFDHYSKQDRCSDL
T1 sequence (P22303 32-614): as above
BuChE, sequence (P06276 29-602): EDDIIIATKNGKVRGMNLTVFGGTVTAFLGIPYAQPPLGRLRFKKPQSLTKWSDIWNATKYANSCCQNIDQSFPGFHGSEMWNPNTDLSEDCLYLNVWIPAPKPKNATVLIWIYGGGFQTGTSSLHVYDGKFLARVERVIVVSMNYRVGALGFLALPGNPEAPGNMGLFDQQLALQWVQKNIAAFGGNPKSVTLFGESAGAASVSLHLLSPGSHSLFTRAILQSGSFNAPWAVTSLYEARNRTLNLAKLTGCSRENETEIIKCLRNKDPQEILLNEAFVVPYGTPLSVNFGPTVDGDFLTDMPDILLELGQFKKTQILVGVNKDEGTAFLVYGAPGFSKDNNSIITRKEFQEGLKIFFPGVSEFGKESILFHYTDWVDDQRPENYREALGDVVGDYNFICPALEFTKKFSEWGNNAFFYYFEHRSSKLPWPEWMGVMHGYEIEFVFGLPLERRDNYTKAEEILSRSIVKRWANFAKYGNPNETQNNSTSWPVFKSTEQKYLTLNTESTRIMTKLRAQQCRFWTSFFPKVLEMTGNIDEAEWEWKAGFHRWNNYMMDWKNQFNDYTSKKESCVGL
butylryl cholinesterase, sequence (P06276 29-602): as above

Row | SMILES | AChEI (%) 1 μM (AChE; 1 μM) [%] | AChEI (%) 10 μM (AChE; 10 μM) [%] | BuChEI (%) 10 μM (BuChE; 10 μM) [%] | Max Tolerated Dose [3] | IC50 [1] [nM] | other results
1 | C[C@@H](Cc1ccccc1)NC(=O)Oc1cccc([C@H](C)N(C)C)c1 [Compound 20, S-riva-d-amphetamine] | 35 | 76 | 20 | – | – | inhibition at 10 µM (butylryl cholinesterase): 20%; duration of wakefulness (male Wistar rats): dose-related increase in wakefulness; IC50 [1, 4]: 3100 nM; inhibition at 10 µM [1]: 76%; Induction of hypothermia MED (mg/kg s.c.) [2]: ≦1 mg/kg s.c.; fall in body temperature [2]: dose-related-related fall in body temperature
2 | C[C@@H](c1cccc(OC(=O)N(C)CCC(Oc2ccc(C(F)(F)F)cc2)c2ccccc2)c1)N(C)C (some centres unmarked) [Compound 7A, S-riva-fluoxetine] | 11 | 76 | 15 | ≧100 | 4800 | Hypothermia MED [2]: 3 mg/kg
3 | C[C@@H](c1cccc(OC(=O)N2CCN(C3=Nc4ccccc4Oc4ccc(Cl)cc43)CC2)c1)N(C)C [Compound 3, S-riva-amoxapine] | – | 16 | 6 | ≧100 | 20900 | Hypothermia MED [2]: 10 mg/kg
4 | CN[C@@H](C)Cc1ccccc1 [d-methamphetamine, reference compound] | – | – | – | – | – | locomotor hyperactivity / stimulant activity (male Wistar rats; FIG. 5): locomotor hyperactivity
5 | COCCCC/C(=N\OCCNC(=O)Oc1cccc([C@H](C)N(C)C)c1)c1ccc(C(F)(F)F)cc1 [Compound 8, S-riva-fluvoxamine] | 17 | 76 | 6 | – | 6100 | –
6 | C[C@@H](c1cccc(OC(=O)N(C)CCCN2c3ccccc3CCc3ccccc32)c1)N(C)C [Compound 4, S-riva-desipramine] | 91 | 99 | 60 | ≧100 | 200 | BuChEI (%) 1 μM (BuChE; 1 μM): 16%; Hypothermia MED [2]: 3 mg/kg
7 | COc1ccccc1CC(C)N(C)C(=O)Oc1cccc([C@H](C)N(C)C)c1 (some centres unmarked) [Compound 15, S-riva-methoxyphenamine] | 49 | 95 | 30 | – | 1100 | inhibition at 10 µM (butylryl cholinesterase): 30%; inhibition at 10 µM [1]: 95%
8 | C[C@@H](c1cccc(OC(=O)N2CC[C@@H](c3ccc(F)cc3)[C@H](COc3ccc4c(c3)OCO4)C2)c1)N(C)C [Compound 9A, S-riva-paroxetine] | 9 | 69 | 4 | – | 9500 | –
9 | C#CCN(C(=O)Oc1ccc2c(c1)[C@]1(C)CCN(C)[C@@H]1N2C)[C@H](C)Cc1ccccc1 [Compound 18, Physo-desmethylselegiline] | – | 37 | 8 | – | – | –
10 | CN1CC[C@@]2(C)c3cc(OC(=O)Nc4ccccc4)ccc3N(C)[C@@H]12 [Phenserine, reference compound] | – | – | – | – | – | AChEI (%) 1 μM (AChE): 93%; AChEI (%) 10 μM (AChE): 99%; BuChEI (%) 10 μM (BuChE): 42%
11 | C[C@@H](c1cccc(OC(=O)N(C)[C@@H](C)Cc2ccccc2)c1)N(C)C [Compound 13, S-riva-d-methamphetamine] | 51 | 97 | 95 | – | – | inhibition at 10 µM (butylryl cholinesterase): 95%; duration of wakefulness (male Wistar rats): dose-related increase in wakefulness; IC50 [1, 4]: 1100 nM; inhibition at 10 µM [1]: 97%; BuChEI (%) 1 μM (BuChE; 1 μM): 25%; Induction of hypothermia MED (mg/kg s.c.) [2]: 10 mg/kg s.c.; fall in body temperature [2]: dose-related-related fall in body temperature
12 | CC(CC1CCCCC1)N(C)C(=O)Oc1cccc([C@H](C)N(C)C)c1 (some centres unmarked) [Compound 16, S-riva-propylhexedrine] | – | – | – | ≧100 | 900 | Hypothermia MED [2]: 10 mg/kg
13 | NC(=O)C[S+]([O-])C(c1ccccc1)c1ccccc1 (centres unmarked) [modafinil, reference compound] | – | – | – | – | – | duration of wakefulness (male Wistar rats): increased the duration of wakefulness
14 | C#CCN(C(=O)Oc1cccc([C@@H](C)N(C)C)c1)[C@H](C)Cc1ccccc1 [Compound 17, R-riva-desmethylselegiline] | – | 31 | 12 | – | – | –
15 | C[C@H](N)Cc1ccccc1 [d-amphetamine, reference compound] | – | – | – | – | – | effect on body temperature (male Wistar rats; FIG. 4): increase in body temperature (hyperthermia); duration of wakefulness (male Wistar rats): increased the duration of wakefulness
16 | C[C@@H](c1cccc(OC(=O)N[C@H]2C[C@@H]2c2ccccc2)c1)N(C)C (stereo in doubt) [Compound 2, S-riva-tranylcypromine] | 84 | 97 | 67 | 30 | 200 | BuChEI (%) 1 μM (BuChE; 1 μM): 23%; Hypothermia MED [2]: 10 mg/kg
17 | CCN(C)C(=O)Oc1cccc([C@H](C)N(C)C)c1 [Compound 1, S-rivastigmine, reference compound] | – | – | – | 10 | – | inhibition at 10 µM (butylryl cholinesterase): 100%; rebound hypersomnolence (male Wistar rats; FIG. 3): rebound hypersomnolence; duration of wakefulness (male Wistar rats): increased wakefulness; BuChEI (%) 1 μM (BuChE): 45%; BuChEI (%) 10 μM (BuChE): 100%; Hypothermia MED (mg/kg) [2]: ≦0.1 mg/kg; Induction of hypothermia MED (mg/kg s.c.) [2]: ≦0.1 mg/kg s.c.; fall in body temperature [2]: dose-related-related fall in body temperature
18 | C[C@@H](c1cccc(OC(=O)N(C)CC[C@H](Oc2cccc3ccccc23)c2cccs2)c1)N(C)C [Compound 10, S-riva-duloxetine] | 88 | 100 | 36 | – | 200 to 500 | –
19 | C#CCN(C(=O)Oc1cccc([C@H](C)N(C)C)c1)[C@H](C)Cc1ccccc1 [Compound 11, S-riva-desmethylselegiline] | 13 | 52 | 17 | – | – | –
20 | C[C@@H](c1cccc(OC(=O)N(C)CCC=C2c3ccccc3CCc3ccccc32)c1)N(C)C [Compound 5A, S-riva-nortriptyline] | 81 | 99 | 55 | – | 500 | BuChEI (%) 1 μM (BuChE; 1 μM): 24%
21 | C[C@@H](Cc1ccccc1)NC(=O)Oc1ccc2c(c1)[C@]1(C)CCN(C)[C@@H]1N2C [Compound 14, Physo-d-amphetamine] | 45 | 94 | 28 | – | – | inhibition at 10 µM (butylryl cholinesterase): 28%; inhibition at 10 µM [1]: 94%
22 | C[C@@H](c1cccc(OC(=O)N(C)CCCC2c3ccccc3C=Cc3ccccc32)c1)N(C)C [Compound 6, S-riva-protriptyline] | 81 | 99 | 53 | >100 | 500 | BuChEI (%) 1 μM (BuChE; 1 μM): 16%; Hypothermia MED [2]: 100 mg/kg
23 | Cc1ccccc1O[C@H](CCN(C)C(=O)Oc1cccc([C@H](C)N(C)C)c1)c1ccccc1 [Compound 5, S-riva-atomoxetine] | 29 | 89 | 14 | ≧100 | – | Hypothermia MED (mg/kg) [2]: ≦1 mg/kg
